Legend:
[1] = tested on: NIH3T3; assay: Concentration of compound inhibiting Pgp-mediated DNM transport in NIH3T3 cells transfected with human MDR1 protein; assay type: functional, cell-based
[2] = tested on: NIH3T3
[3] = tested on: NIH3T3; remark: listed apart in the source
[4] = tested on: NIH3T3; remark: listed apart in the source
[5] = tested on: NIH3T3; remark: listed apart in the source
[6] = tested on: NIH3T3; remark: listed apart in the source
[7] = tested on: NIH3T3; remark: listed apart in the source

SMILES	Ki [1] [µM]	Reversal ability [2]	Reversal ability [3]	Reversal ability [4]	Reversal ability [5]	Reversal ability [6]	Reversal ability [7]
CC(=O)OC[C@]12[C@H](OC(=O)c3ccccc3)C(=O)[C@@H]3[C@@H](OC(C)=O)[C@]1(OC3(C)C)[C@@](C)(O)C[C@H](OC(C)=O)[C@@H]2OC(=O)c1ccccc1	3.01						
CC(=O)O[C@H]1C[C@](C)(O)[C@]23OC(C)(C)[C@H]([C@H](OC(=O)c4ccccc4)[C@H](OC(=O)c4ccccc4)[C@]2(C)[C@H]1OC(=O)c1ccccc1)[C@H]3OC(C)=O	0.913	8.26	16.55	9.55	87.04	12.72	90.39
CC(=O)OC[C@]12[C@H](OC(C)=O)C(=O)[C@@H]3[C@@H](OC(C)=O)[C@]1(OC3(C)C)[C@@](C)(O)[C@@H](OC(C)=O)[C@H](OC(C)=O)[C@@H]2OC(=O)c1ccccc1	6.52						
CC(=O)OC[C@]12[C@@H](OC(=O)c3ccccc3)C[C@@H]3[C@@H](OC(C)=O)[C@]1(OC3(C)C)[C@@](C)(O)C[C@H](OC(C)=O)[C@@H]2OC(C)=O	4.39						
CC(=O)OC[C@]12[C@H](OC(=O)c3ccccc3)C(=O)[C@@H]3[C@@H](OC(C)=O)[C@]1(OC3(C)C)[C@H](C)C[C@H](OC(C)=O)[C@@H]2OC(C)=O	2.54						
CC(=O)O[C@@H]1[C@H]2[C@H](O)[C@H](OC(=O)c3ccccc3)[C@]3(C)[C@@H](OC(=O)c4ccccc4)[C@@H](OC(=O)c4ccccc4)C[C@](C)(O)[C@@]13OC2(C)C	1.21	6.32	5.38	11.13	41.23	15.86	57.32
CC(=O)OC[C@]12[C@H](OC(=O)c3ccccc3)C(=O)[C@@H]3[C@@H](OC(C)=O)[C@]1(OC3(C)C)[C@@](C)(O)C[C@H](OC(=O)c1ccccc1)[C@@H]2OC(=O)c1ccccc1	1.03	9.93	7.31	15.41	8.09	16.64	33.1
CC(=O)OC[C@]12[C@H](OC(=O)c3ccccc3)C(=O)[C@@H]3[C@@H](OC(C)=O)[C@]1(OC3(C)C)[C@H](C)C[C@H](OC(C)=O)[C@@H]2O	18.4						
CC(=O)O[C@H]1C[C@](C)(O)[C@]23OC(C)(C)[C@H]([C@H](OC(=O)c4ccccc4)[C@H](OC(=O)c4ccccc4)[C@]2(CO)[C@H]1OC(C)=O)[C@H]3OC(C)=O	7.04						
CC(=O)OC[C@]12[C@H](OC(C)=O)C(=O)[C@@H]3[C@@H](OC(C)=O)[C@]1(OC3(C)C)[C@H](C)C[C@H](OC(C)=O)[C@@H]2OC(=O)c1ccccc1	5.74						
CC(=O)OC[C@]12[C@H](OC(=O)c3ccccc3)C(=O)[C@@H]3[C@@H](O)[C@]1(OC3(C)C)[C@@](C)(O)C[C@H](OC(C)=O)[C@@H]2OC(=O)c1ccccc1	3.97						
CC(=O)OC[C@]12[C@@H](OC(=O)c3ccccc3)C[C@@H]3[C@@H](OC(C)=O)[C@]1(OC3(C)C)[C@H](C)C[C@H](OC(C)=O)[C@@H]2OC(C)=O	2.36						
CC(=O)OC[C@]12[C@@H](OC(=O)c3ccccc3)[C@@H](OC(=O)c3ccccc3)[C@@H]3[C@@H](OC(C)=O)[C@]1(OC3(C)C)[C@@](C)(O)C[C@H](OC(C)=O)[C@@H]2OC(C)=O	1.74	4.26	6.23	10.78	102.17	11.13	233.6
CC(=O)OC[C@]12[C@H](OC(C)=O)C(=O)[C@@H]3[C@@H](OC(C)=O)[C@]1(OC3(C)C)[C@H](C)C[C@H](OC(C)=O)[C@@H]2OC(C)=O	9.83						
CC(=O)OC[C@]12[C@@H](OC(=O)c3ccccc3)[C@@H](OC(=O)c3ccccc3)[C@@H]3[C@@H](OC(C)=O)[C@]1(OC3(C)C)[C@H](C)C[C@H](OC(C)=O)[C@@H]2OC(C)=O	1.71						
CC(=O)OC[C@]12[C@H](OC(=O)c3ccccc3)C(=O)[C@@H]3[C@@H](OC(C)=O)[C@]1(OC3(C)C)[C@H](C)C[C@H](OC(C)=O)[C@@H]2OC(=O)c1ccccc1	1.63	4.21	5.72	6.21	213.64	11.75	233.37
COc1ccc(CCN(C)CCCC(C#N)(c2ccc(OC)c(OC)c2)C(C)C)cc1OC (configuration not stated)		6.12	6.21	9.55	13.18	10.2	18.76

Reference: ChEMBL document CHEMBL1140287, “Reversion of human Pgp-dependent multidrug resistance by new sesquiterpenes from Zinowiewia costaricensis” (J Med Chem, 2005)
